Source: patent publication US8076487B2, “Pyridone derivative and herbicide” (Kumiai Chemical Industry Co., Ltd., priority 2006, dated 2011)

Key:
Assay type in all cases: in vivo
[1] = tested on: slender amaranth (Amaranthus viridis L.); experiment: Test Example 3: herbicidal effect by application to upland field (foliage treatment); settings: foliage treatment, 1,000 g active ingredient per 1 hectare, 14th day after application, greenhouse
How it was run: (§1)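 Sow in field soil; grow 2 weeks in greenhouse; spray foliage from above with wettable-powder dilution (1,000 g AI/ha, 1,000 L/ha); return to greenhouse; score effect at day 14 against a standard.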

[2] = tested on: velvetleaf (Abutilon theophrasti medicus); experiment: as above; settings: foliage treatment, 1,000 g active ingredient per 1 hectare, 14th day after application, greenhouse
How it was run: as §1

[3] = tested on: barnyardgrass (Echinochloa crus-galli (L.) P. Beauv. var. crus-galli); experiment: as above; settings: foliage treatment, 1,000 g active ingredient per 1 hectare, 14th day after application, greenhouse
How it was run: as §1

[4] = tested on: green foxtail (Setaria viridis (L.) P. Beauv.); experiment: as above; settings: foliage treatment, 1,000 g active ingredient per 1 hectare, 14th day after application, greenhouse
How it was run: as §1

[5] = tested on: Japanese bulrush (Scirpus juncoides Roxb.); experiment: Test Example 1: herbicidal effect by soil application to paddy field; settings: paddy field soil application; active ingredient 1,000 g per 1 hectare; wettable powder added dropwise to water surface the day after sowing; examined on the 21st day after application
How it was run: (§2)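 Plants were sown in flooded (3 cm) paddy soil and evaluated for herbicidal effect 21 days after soil application in a greenhouse.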

[6] = tested on: heartshape false pickerelweed (Monochoria vaginalis (Burm.f.) C.Presl); experiment: as above; settings: paddy field soil application; active ingredient 1,000 g per 1 hectare; wettable powder added dropwise to water surface the day after sowing; examined on the 21st day after application
How it was run: as §2

[7] = tested on: early watergrass (Echinochloa oryzicola Vasing); experiment: as above; settings: paddy field soil application; active ingredient 1,000 g per 1 hectare; wettable powder added dropwise to water surface the day after sowing; examined on the 21st day after application
How it was run: as §2

[8] = tested on: slender amaranth (Amaranthus viridis L.); experiment: Test Example 2: herbicidal effect by soil application to upland field; settings: soil surface spray, upland field soil, 1,000 g active ingredient per hectare, 21st day after application
How it was run: (§3)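 A standard visual rating of herbicidal effect, made 21 days after treatment, gives the value. Treatment consisted of a uniform spray of water-diluted wettable powder on the soil covering newly sown seeds, equivalent to 1,000 g active ingredient and 1,000 liters per hectare.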

[9] = tested on: velvetleaf (Abutilon theophrasti medicus); experiment: as above; settings: soil surface spray, upland field soil, 1,000 g active ingredient per hectare, 21st day after application
How it was run: as §3

[10] = tested on: barnyardgrass (Echinochloa crus-galli (L.) P. Beauv. var. crus-galli); experiment: as above; settings: soil surface spray, upland field soil, 1,000 g active ingredient per hectare, 21st day after application
How it was run: as §3

[11] = tested on: green foxtail (Setaria viridis (L.) P. Beauv.); experiment: as above; settings: soil surface spray, upland field soil, 1,000 g active ingredient per hectare, 21st day after application
How it was run: as §3

CC1(C)CCC(O)=C(C(=O)c2ccc(C(F)(F)F)n(-c3cc(F)cc(F)c3)c2=O)C1=O [II-40]
herbicidal effect, Slender Amaranth [1]: 5 (90% or more of herbicidal effect and crop phytotoxicity) | herbicidal effect, Velvetleaf [2]: 5 (90% or more of herbicidal effect and crop phytotoxicity) | herbicidal effect, Barnyardgrass [3]: 5 (90% or more of herbicidal effect and crop phytotoxicity) | herbicidal effect, Green Foxtail [4]: 4 (70 to less than 90% of herbicidal effect and crop phytotoxicity) | herbicidal effect, Scirpus juncoides Roxb. [5]: 5 (90% or more of herbicidal effect and crop phytotoxicity) | herbicidal effect, Monochoria vaginalis (Burm. f.) C. Presl [6]: 5 (90% or more of herbicidal effect and crop phytotoxicity) | herbicidal effect, Echinochloa oryzicola Vasing [7]: 5 (90% or more of herbicidal effect and crop phytotoxicity) | herbicidal effect (index), Slender Amaranth [8]: 5 (90% or more of herbicidal effect and crop phytotoxicity) | herbicidal effect (index), Velvetleaf [9]: 5 (90% or more of herbicidal effect and crop phytotoxicity) | herbicidal effect (index), Barnyardgrass [10]: 5 (90% or more of herbicidal effect and crop phytotoxicity) | herbicidal effect (index), Green Foxtail [11]: 5 (90% or more of herbicidal effect and crop phytotoxicity)

CC1(C)C(=O)C(C(=O)c2ccc(C(F)(F)F)n(-c3ccccc3)c2=O)=C(O)C(C)(C)C1=O [II-41]
herbicidal effect, Slender Amaranth [1]: 4 (70 to less than 90% of herbicidal effect and crop phytotoxicity) | herbicidal effect, Velvetleaf [2]: 5 (90% or more of herbicidal effect and crop phytotoxicity) | herbicidal effect, Barnyardgrass [3]: 5 (90% or more of herbicidal effect and crop phytotoxicity) | herbicidal effect, Green Foxtail [4]: 5 (90% or more of herbicidal effect and crop phytotoxicity) | herbicidal effect, Scirpus juncoides Roxb. [5]: 4 (70 to less than 90% of herbicidal effect and crop phytotoxicity) | herbicidal effect, Monochoria vaginalis (Burm. f.) C. Presl [6]: 5 (90% or more of herbicidal effect and crop phytotoxicity) | herbicidal effect, Echinochloa oryzicola Vasing [7]: 5 (90% or more of herbicidal effect and crop phytotoxicity) | herbicidal effect (index), Slender Amaranth [8]: 5 (90% or more of herbicidal effect and crop phytotoxicity) | herbicidal effect (index), Velvetleaf [9]: 5 (90% or more of herbicidal effect and crop phytotoxicity) | herbicidal effect (index), Barnyardgrass [10]: 4 (70 to less than 90% of herbicidal effect and crop phytotoxicity) | herbicidal effect (index), Green Foxtail [11]: 5 (90% or more of herbicidal effect and crop phytotoxicity)

Cn1c(C(F)(F)F)ccc(C(=O)C2=C(O)C3CCC(C3)C2=O)c1=O (centres unmarked) [III-1]
herbicidal effect, Slender Amaranth [1]: 5 (90% or more of herbicidal effect and crop phytotoxicity) | herbicidal effect, Velvetleaf [2]: 5 (90% or more of herbicidal effect and crop phytotoxicity) | herbicidal effect, Barnyardgrass [3]: 4 (70 to less than 90% of herbicidal effect and crop phytotoxicity) | herbicidal effect, Green Foxtail [4]: 5 (90% or more of herbicidal effect and crop phytotoxicity) | herbicidal effect, Scirpus juncoides Roxb. [5]: 5 (90% or more of herbicidal effect and crop phytotoxicity) | herbicidal effect, Monochoria vaginalis (Burm. f.) C. Presl [6]: 5 (90% or more of herbicidal effect and crop phytotoxicity) | herbicidal effect, Echinochloa oryzicola Vasing [7]: 5 (90% or more of herbicidal effect and crop phytotoxicity) | herbicidal effect (index), Slender Amaranth [8]: 5 (90% or more of herbicidal effect and crop phytotoxicity) | herbicidal effect (index), Velvetleaf [9]: 5 (90% or more of herbicidal effect and crop phytotoxicity) | herbicidal effect (index), Barnyardgrass [10]: 5 (90% or more of herbicidal effect and crop phytotoxicity) | herbicidal effect (index), Green Foxtail [11]: 5 (90% or more of herbicidal effect and crop phytotoxicity)

CCCn1c(C(F)(F)F)ccc(C(=O)C2=C(O)C3CCC(C3)C2=O)c1=O (centres unmarked) [III-3]
herbicidal effect, Slender Amaranth [1]: 5 (90% or more of herbicidal effect and crop phytotoxicity) | herbicidal effect, Velvetleaf [2]: 5 (90% or more of herbicidal effect and crop phytotoxicity) | herbicidal effect, Barnyardgrass [3]: 5 (90% or more of herbicidal effect and crop phytotoxicity) | herbicidal effect, Green Foxtail [4]: 5 (90% or more of herbicidal effect and crop phytotoxicity) | herbicidal effect, Scirpus juncoides Roxb. [5]: 5 (90% or more of herbicidal effect and crop phytotoxicity) | herbicidal effect, Monochoria vaginalis (Burm. f.) C. Presl [6]: 5 (90% or more of herbicidal effect and crop phytotoxicity) | herbicidal effect, Echinochloa oryzicola Vasing [7]: 5 (90% or more of herbicidal effect and crop phytotoxicity) | herbicidal effect (index), Slender Amaranth [8]: 5 (90% or more of herbicidal effect and crop phytotoxicity) | herbicidal effect (index), Velvetleaf [9]: 5 (90% or more of herbicidal effect and crop phytotoxicity) | herbicidal effect (index), Barnyardgrass [10]: 5 (90% or more of herbicidal effect and crop phytotoxicity) | herbicidal effect (index), Green Foxtail [11]: 5 (90% or more of herbicidal effect and crop phytotoxicity)

O=C(C1=C(O)C2CCC(C2)C1=O)c1ccc(C(F)(F)F)n(C2CC2)c1=O (centres unmarked) [III-5]
herbicidal effect, Slender Amaranth [1]: 5 (90% or more of herbicidal effect and crop phytotoxicity) | herbicidal effect, Velvetleaf [2]: 5 (90% or more of herbicidal effect and crop phytotoxicity) | herbicidal effect, Barnyardgrass [3]: 5 (90% or more of herbicidal effect and crop phytotoxicity) | herbicidal effect, Green Foxtail [4]: 5 (90% or more of herbicidal effect and crop phytotoxicity) | herbicidal effect, Scirpus juncoides Roxb. [5]: 5 (90% or more of herbicidal effect and crop phytotoxicity) | herbicidal effect, Monochoria vaginalis (Burm. f.) C. Presl [6]: 5 (90% or more of herbicidal effect and crop phytotoxicity) | herbicidal effect, Echinochloa oryzicola Vasing [7]: 5 (90% or more of herbicidal effect and crop phytotoxicity) | herbicidal effect (index), Slender Amaranth [8]: 5 (90% or more of herbicidal effect and crop phytotoxicity) | herbicidal effect (index), Velvetleaf [9]: 5 (90% or more of herbicidal effect and crop phytotoxicity) | herbicidal effect (index), Barnyardgrass [10]: 5 (90% or more of herbicidal effect and crop phytotoxicity) | herbicidal effect (index), Green Foxtail [11]: 5 (90% or more of herbicidal effect and crop phytotoxicity)

CCCCn1c(C(F)(F)F)ccc(C(=O)C2=C(O)C3CCC(C3)C2=O)c1=O (centres unmarked) [III-6]
herbicidal effect, Slender Amaranth [1]: 5 (90% or more of herbicidal effect and crop phytotoxicity) | herbicidal effect, Velvetleaf [2]: 5 (90% or more of herbicidal effect and crop phytotoxicity) | herbicidal effect, Barnyardgrass [3]: 5 (90% or more of herbicidal effect and crop phytotoxicity) | herbicidal effect, Green Foxtail [4]: 5 (90% or more of herbicidal effect and crop phytotoxicity) | herbicidal effect, Scirpus juncoides Roxb. [5]: 5 (90% or more of herbicidal effect and crop phytotoxicity) | herbicidal effect, Monochoria vaginalis (Burm. f.) C. Presl [6]: 5 (90% or more of herbicidal effect and crop phytotoxicity) | herbicidal effect, Echinochloa oryzicola Vasing [7]: 5 (90% or more of herbicidal effect and crop phytotoxicity) | herbicidal effect (index), Slender Amaranth [8]: 5 (90% or more of herbicidal effect and crop phytotoxicity) | herbicidal effect (index), Velvetleaf [9]: 5 (90% or more of herbicidal effect and crop phytotoxicity) | herbicidal effect (index), Barnyardgrass [10]: 5 (90% or more of herbicidal effect and crop phytotoxicity) | herbicidal effect (index), Green Foxtail [11]: 5 (90% or more of herbicidal effect and crop phytotoxicity)

CCCCCCn1c(C(F)(F)F)ccc(C(=O)C2=C(O)C3CCC(C3)C2=O)c1=O (centres unmarked) [III-10]
herbicidal effect, Slender Amaranth [1]: 4 (70 to less than 90% of herbicidal effect and crop phytotoxicity) | herbicidal effect, Velvetleaf [2]: 5 (90% or more of herbicidal effect and crop phytotoxicity) | herbicidal effect, Barnyardgrass [3]: 5 (90% or more of herbicidal effect and crop phytotoxicity) | herbicidal effect, Green Foxtail [4]: 5 (90% or more of herbicidal effect and crop phytotoxicity) | herbicidal effect, Scirpus juncoides Roxb. [5]: 5 (90% or more of herbicidal effect and crop phytotoxicity) | herbicidal effect, Monochoria vaginalis (Burm. f.) C. Presl [6]: 5 (90% or more of herbicidal effect and crop phytotoxicity) | herbicidal effect, Echinochloa oryzicola Vasing [7]: 5 (90% or more of herbicidal effect and crop phytotoxicity) | herbicidal effect (index), Slender Amaranth [8]: 5 (90% or more of herbicidal effect and crop phytotoxicity) | herbicidal effect (index), Velvetleaf [9]: 5 (90% or more of herbicidal effect and crop phytotoxicity) | herbicidal effect (index), Barnyardgrass [10]: 5 (90% or more of herbicidal effect and crop phytotoxicity) | herbicidal effect (index), Green Foxtail [11]: 5 (90% or more of herbicidal effect and crop phytotoxicity)
